Results on three molecules are retold here after ChEMBL document CHEMBL1152560, “Substituted 2-arylbenzothiazoles as kinase inhibitors: hit-to-lead optimization” (Bioorg Med Chem, 2009).

Experiment [1] concerns Epidermal growth factor receptor (Homo sapiens), P00533 [L858R,T790M]. The experiment is described as follows: Residual activity of EGFR T790M/L858R at 1 uM by microplate scintillation counting.
Experiment [2] concerns the target Receptor tyrosine-protein kinase erbB-2 (Homo sapiens, UniProt P04626). Briefly: Residual activity of ERBB2 at 1 uM by microplate scintillation counting.
In experiment [3] the target is Tyrosine-protein kinase Fyn (Homo sapiens) (UniProt P06241). The experiment is described as follows: Residual activity of FYN at 1 uM by microplate scintillation counting.
Experiment [4] has as its target PAS domain-containing serine/threonine-protein kinase (Homo sapiens) (UniProt Q96RG2). Briefly: Residual activity of PASK at 1 uM by microplate scintillation counting.
Experiment [5] deals with Serine/threonine-protein kinase PLK1 (Homo sapiens) (UniProt P53350). Briefly: Residual activity of PLK1 at 1 uM by microplate scintillation counting.
The next experiment concerns the target Angiopoietin-1 receptor (Homo sapiens, UniProt Q02763). The experiment is described as follows: Residual activity of TIE2 at 1 uM by microplate scintillation counting.
In experiment [6] the target is Fibroblast growth factor receptor 3 (Homo sapiens) (UniProt P22607). Briefly: Residual activity of FGFR3 at 10 uM by microplate scintillation counting.
In experiment [7] the target is Tyrosine-protein kinase Blk (Homo sapiens) (UniProt P51451). The experiment is described as follows: Residual activity of BLK at 1 uM by microplate scintillation counting.
For experiment [8], the target named is Calcium/calmodulin-dependent protein kinase type II subunit beta (Homo sapiens) (UniProt Q13554). Briefly: Residual activity of CAMK2B at 1 uM by microplate scintillation counting.
Experiment [9] concerns the target T1, Calcium/calmodulin-dependent protein kinase type IV (Homo sapiens) (UniProt Q16566).
T1 sequence (whole entry): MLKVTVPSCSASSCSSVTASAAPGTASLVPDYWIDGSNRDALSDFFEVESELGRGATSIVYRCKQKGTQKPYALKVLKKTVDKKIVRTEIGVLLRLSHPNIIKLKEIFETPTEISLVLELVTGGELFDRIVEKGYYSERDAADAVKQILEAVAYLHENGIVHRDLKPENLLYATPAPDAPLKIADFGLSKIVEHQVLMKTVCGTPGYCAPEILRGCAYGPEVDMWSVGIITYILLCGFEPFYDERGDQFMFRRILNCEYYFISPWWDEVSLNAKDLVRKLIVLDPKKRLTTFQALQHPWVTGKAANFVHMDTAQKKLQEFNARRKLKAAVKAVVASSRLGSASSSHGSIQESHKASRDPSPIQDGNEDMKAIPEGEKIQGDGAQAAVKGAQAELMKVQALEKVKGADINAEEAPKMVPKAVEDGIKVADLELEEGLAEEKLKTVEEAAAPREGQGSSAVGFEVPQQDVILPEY
The experiment is described as follows: Residual activity of CAMK4 at 0.1 uM by microplate scintillation counting.

In experiment [10] the target is T2, Serine/threonine-protein kinase Nek3 (Homo sapiens) (UniProt P51956).
T2 sequence (whole entry): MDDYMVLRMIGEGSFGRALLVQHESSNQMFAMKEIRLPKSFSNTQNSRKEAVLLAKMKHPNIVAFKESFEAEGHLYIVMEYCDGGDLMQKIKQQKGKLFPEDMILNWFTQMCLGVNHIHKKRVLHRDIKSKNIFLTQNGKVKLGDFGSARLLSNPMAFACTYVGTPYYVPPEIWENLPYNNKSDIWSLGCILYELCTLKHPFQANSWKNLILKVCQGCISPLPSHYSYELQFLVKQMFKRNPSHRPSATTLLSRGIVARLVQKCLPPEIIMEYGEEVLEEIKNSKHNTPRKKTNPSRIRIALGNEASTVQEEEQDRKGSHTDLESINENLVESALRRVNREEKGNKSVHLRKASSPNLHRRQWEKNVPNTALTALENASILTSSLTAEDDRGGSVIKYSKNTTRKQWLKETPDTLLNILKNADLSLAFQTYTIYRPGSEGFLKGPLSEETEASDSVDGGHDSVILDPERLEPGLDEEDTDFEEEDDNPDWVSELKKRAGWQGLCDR
The experiment is described as follows: Residual activity of NEK3 at 0.1 uM by microplate scintillation counting.

In experiment [11] the target is Mitogen-activated protein kinase kinase kinase 14 (Homo sapiens) (UniProt Q99558). Briefly: Residual activity of NIK at 0.1 uM by microplate scintillation counting.
Experiment [12] addresses T3, Mitogen-activated protein kinase 12 (Homo sapiens) (UniProt P53778).
T3 sequence (whole entry): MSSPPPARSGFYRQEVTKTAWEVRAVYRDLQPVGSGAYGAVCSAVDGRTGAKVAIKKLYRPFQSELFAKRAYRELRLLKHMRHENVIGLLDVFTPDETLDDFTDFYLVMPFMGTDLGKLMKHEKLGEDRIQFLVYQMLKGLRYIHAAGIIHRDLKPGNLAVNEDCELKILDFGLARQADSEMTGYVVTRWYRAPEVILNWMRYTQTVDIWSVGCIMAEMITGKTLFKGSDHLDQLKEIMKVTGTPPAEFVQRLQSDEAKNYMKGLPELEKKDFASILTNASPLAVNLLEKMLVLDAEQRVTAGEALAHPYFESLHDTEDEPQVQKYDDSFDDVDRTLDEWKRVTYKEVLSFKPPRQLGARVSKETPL
The experiment is described as follows: Residual activity of p38-gamma at 0.1 uM by microplate scintillation counting.

Experiment [13] concerns the target Ribosomal protein S6 kinase alpha-2 (Homo sapiens) (UniProt Q15349). Briefly: Residual activity of RPS6KA2 at 10 uM by microplate scintillation counting.
Experiment [14] deals with T4, NUAK family SNF1-like kinase 2 (Homo sapiens) (UniProt Q9H093).
T4 sequence (whole entry): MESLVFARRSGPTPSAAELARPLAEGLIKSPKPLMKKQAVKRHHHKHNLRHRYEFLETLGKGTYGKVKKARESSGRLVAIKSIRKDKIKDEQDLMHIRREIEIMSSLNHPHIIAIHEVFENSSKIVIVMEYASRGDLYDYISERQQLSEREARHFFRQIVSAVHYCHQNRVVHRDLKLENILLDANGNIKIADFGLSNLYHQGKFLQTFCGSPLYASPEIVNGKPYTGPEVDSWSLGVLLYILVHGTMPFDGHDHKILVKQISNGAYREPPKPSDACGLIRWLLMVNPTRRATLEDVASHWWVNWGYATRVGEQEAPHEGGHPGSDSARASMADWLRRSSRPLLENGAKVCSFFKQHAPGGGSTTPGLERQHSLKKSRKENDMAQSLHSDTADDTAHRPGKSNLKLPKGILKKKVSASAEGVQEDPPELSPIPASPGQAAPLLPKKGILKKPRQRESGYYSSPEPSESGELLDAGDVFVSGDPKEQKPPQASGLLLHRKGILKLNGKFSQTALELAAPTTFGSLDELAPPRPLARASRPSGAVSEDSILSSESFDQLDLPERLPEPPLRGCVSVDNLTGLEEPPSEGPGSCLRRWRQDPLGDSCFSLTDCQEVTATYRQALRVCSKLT
Briefly: Residual activity of SNARK at 10 uM by microplate scintillation counting.

Experiment [15] concerns the target Serine/threonine-protein kinase PLK1 (Homo sapiens) (UniProt P53350). The experiment is described as follows: Residual activity of PLK1 at 0.1 uM by microplate scintillation counting.

Chain of Mitogen-activated protein kinase kinase kinase 14 (Homo sapiens) (Q99558 whole entry, looked up): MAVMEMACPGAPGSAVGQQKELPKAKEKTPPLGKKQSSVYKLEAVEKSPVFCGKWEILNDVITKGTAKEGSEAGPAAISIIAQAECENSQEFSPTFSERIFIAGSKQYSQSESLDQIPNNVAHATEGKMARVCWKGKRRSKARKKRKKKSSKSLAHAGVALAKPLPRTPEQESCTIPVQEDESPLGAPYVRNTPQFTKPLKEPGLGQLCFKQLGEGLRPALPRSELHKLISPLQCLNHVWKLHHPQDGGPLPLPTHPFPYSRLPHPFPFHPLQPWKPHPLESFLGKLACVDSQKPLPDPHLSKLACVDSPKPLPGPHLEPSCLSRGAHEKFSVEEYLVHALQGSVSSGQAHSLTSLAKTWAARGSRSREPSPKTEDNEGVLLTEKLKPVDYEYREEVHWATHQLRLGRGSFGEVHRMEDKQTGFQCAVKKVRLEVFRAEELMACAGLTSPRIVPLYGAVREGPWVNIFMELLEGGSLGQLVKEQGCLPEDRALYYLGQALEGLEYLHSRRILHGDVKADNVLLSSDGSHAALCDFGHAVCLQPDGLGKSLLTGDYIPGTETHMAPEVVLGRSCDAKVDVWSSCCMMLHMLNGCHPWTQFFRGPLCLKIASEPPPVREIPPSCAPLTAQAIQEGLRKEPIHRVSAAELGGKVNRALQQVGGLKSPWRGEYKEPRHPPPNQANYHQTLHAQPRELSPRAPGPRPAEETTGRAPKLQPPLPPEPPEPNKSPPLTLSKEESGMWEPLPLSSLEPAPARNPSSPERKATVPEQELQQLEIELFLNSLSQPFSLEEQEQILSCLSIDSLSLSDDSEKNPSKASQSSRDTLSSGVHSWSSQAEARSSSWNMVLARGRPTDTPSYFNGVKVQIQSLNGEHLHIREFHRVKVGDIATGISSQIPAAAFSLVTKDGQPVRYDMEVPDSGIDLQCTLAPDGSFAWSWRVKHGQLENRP
Chain of Serine/threonine-protein kinase PLK1 (Homo sapiens) (P53350 whole entry): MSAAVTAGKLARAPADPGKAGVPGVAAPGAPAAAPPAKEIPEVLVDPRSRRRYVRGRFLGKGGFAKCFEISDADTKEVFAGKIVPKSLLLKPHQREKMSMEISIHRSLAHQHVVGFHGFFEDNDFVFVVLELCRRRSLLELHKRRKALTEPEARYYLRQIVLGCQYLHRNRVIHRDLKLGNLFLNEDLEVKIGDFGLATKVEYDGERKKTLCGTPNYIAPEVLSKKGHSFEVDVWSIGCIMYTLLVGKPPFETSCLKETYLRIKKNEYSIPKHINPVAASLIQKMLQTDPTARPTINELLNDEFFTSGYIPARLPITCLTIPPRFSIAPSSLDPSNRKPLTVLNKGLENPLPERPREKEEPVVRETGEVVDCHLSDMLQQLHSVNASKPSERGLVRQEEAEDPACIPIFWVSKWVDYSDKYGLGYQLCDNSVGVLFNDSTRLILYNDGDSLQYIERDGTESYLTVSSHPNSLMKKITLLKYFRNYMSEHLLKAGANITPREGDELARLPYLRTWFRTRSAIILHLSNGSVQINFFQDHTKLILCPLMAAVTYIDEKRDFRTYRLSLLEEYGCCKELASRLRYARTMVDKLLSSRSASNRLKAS
Chain of PAS domain-containing serine/threonine-protein kinase (Homo sapiens) (Q96RG2 whole entry, the tested form may be a part): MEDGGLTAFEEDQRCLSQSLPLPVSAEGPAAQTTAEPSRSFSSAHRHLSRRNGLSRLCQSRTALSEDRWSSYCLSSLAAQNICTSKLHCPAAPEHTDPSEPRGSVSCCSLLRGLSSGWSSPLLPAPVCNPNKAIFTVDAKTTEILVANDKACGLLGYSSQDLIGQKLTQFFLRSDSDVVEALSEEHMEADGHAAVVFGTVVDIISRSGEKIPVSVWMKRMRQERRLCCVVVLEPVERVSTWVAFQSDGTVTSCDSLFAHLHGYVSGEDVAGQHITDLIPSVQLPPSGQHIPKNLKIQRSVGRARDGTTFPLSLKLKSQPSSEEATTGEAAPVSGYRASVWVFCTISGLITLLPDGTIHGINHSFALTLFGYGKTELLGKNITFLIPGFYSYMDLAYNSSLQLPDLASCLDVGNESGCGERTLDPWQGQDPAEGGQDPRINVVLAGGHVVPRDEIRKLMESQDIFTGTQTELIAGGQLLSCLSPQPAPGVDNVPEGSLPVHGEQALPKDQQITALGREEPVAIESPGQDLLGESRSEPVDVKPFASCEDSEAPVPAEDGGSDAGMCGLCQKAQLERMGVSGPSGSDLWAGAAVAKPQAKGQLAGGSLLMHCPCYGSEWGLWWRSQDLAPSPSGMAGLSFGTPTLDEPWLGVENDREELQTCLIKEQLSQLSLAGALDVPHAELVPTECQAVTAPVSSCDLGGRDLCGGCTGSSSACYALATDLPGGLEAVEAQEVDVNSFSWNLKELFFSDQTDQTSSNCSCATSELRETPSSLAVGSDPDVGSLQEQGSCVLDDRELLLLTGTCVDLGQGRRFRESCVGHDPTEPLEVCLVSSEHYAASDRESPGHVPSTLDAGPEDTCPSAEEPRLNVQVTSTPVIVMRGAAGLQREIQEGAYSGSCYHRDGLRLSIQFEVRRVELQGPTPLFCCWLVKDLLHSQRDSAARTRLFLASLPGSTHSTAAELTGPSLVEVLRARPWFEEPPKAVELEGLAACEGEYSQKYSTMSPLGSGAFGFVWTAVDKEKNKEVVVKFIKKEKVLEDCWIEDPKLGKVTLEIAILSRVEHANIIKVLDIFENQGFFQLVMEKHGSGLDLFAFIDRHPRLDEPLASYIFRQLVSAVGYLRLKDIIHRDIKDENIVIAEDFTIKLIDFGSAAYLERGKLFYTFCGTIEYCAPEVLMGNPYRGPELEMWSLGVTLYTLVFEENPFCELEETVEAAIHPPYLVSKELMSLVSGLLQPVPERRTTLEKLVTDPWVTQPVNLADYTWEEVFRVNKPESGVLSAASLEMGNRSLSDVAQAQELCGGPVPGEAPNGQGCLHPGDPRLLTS
Chain of Angiopoietin-1 receptor (Q02763 whole entry): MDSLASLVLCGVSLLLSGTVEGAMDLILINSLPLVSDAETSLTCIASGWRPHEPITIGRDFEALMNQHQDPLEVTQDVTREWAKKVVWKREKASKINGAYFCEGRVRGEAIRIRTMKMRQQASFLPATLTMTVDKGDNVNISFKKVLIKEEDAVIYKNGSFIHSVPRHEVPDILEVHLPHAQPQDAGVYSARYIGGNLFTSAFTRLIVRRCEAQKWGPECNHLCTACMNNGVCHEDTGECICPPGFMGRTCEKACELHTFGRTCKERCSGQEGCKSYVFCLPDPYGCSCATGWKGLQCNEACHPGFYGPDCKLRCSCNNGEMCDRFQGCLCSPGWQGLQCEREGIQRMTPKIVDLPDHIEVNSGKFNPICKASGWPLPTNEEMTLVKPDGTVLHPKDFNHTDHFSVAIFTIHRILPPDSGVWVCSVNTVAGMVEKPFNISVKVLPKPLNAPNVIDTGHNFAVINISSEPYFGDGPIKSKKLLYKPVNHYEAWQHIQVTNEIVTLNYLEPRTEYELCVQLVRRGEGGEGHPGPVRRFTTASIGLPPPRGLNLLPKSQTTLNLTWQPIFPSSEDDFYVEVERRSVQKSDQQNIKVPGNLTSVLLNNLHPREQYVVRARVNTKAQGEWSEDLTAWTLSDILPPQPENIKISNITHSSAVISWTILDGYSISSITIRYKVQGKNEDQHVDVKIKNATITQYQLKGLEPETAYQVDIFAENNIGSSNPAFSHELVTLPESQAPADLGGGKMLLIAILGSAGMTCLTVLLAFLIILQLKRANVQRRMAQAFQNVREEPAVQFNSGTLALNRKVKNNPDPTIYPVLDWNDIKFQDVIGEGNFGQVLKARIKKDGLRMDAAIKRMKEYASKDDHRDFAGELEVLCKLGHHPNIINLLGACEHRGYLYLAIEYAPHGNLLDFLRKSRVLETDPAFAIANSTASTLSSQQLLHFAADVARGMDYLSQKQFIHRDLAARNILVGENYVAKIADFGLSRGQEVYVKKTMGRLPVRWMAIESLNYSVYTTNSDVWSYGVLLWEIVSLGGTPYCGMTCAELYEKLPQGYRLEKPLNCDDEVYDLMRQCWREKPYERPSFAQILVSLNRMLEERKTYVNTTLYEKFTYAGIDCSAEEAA
Chain of Tyrosine-protein kinase Blk (Homo sapiens) (P51451 2-505 limits assumed): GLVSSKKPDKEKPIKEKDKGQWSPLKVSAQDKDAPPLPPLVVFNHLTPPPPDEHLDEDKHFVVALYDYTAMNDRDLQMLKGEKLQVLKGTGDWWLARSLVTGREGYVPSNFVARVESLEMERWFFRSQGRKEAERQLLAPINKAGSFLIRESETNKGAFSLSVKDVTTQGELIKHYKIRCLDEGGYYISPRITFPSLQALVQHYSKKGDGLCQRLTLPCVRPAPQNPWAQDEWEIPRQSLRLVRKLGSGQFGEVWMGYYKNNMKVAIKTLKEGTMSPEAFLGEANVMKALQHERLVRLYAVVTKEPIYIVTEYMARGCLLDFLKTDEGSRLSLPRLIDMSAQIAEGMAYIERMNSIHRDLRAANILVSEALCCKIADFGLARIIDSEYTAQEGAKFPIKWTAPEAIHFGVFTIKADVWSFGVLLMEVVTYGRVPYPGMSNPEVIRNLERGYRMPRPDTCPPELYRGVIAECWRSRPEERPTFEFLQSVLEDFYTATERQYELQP
Chain of Tyrosine-protein kinase Fyn (Homo sapiens) (P06241 2-537 limits assumed): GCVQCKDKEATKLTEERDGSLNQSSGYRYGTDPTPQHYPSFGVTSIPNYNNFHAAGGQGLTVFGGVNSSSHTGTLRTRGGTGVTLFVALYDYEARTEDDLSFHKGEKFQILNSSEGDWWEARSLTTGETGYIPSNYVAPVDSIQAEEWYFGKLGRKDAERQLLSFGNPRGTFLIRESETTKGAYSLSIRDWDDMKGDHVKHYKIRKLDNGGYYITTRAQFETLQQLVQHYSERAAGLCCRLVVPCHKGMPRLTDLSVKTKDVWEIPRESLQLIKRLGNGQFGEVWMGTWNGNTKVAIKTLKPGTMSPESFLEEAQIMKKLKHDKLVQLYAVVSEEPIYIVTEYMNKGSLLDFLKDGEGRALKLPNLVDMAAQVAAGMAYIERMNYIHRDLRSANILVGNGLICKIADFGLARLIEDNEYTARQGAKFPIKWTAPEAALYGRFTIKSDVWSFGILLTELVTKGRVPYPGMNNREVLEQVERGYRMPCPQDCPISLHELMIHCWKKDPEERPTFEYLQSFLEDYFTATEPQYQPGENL

Regarding `COc1cc2c(Oc3ccc(-c4nc5ccccc5s4)cc3)ncnc2cc1OCCCN1CCN(C)CC1`, the residual activity in [1] was found to be 103%; in experiment [2], 98%; in experiment [3], 105%; in [4] it was 88%; in experiment [5], 100%; on Angiopoietin-1 receptor, 22%. For the same molecule, the residual activity in experiment [6] was found to be 171%; in experiment [7], 63%; in experiment [8] it was 103%; in experiment [9] it was 96%; in [10], 98%; in experiment [11], 86%. Moreover, the residual activity in experiment [12] amounted to 93%; in [13], 44%; in experiment [14], 92%; in [15] it was 94%.
With `COc1cc2c(Oc3ccc(-c4nc5ccccc5s4)cc3)ncnc2cc1OCCCN1CCCC1`, the residual activity was determined as 100% in [1]; 128% in [2]; 106% in experiment [3]; 94% in [4]; 88% in [5]; 23% on Angiopoietin-1 receptor. The residual activity came to 169% in [6]; 64% in [7]; 70% in experiment [8]; 102% in [9]; 96% in experiment [10]; 87% in [11]. The residual activity in experiment [12] was 86%; in [13] it was 81%; in [14], 82%; in experiment [15], 91%.
`COc1cc2c(Oc3ccc(-c4nc5ccccc5s4)cc3F)ncnc2cc1OCCCN1CCN(C)CC1`: the residual activity in [1] is 99%; in [2], 99%; in experiment [3], 106%; in experiment [4] it was 83%; in experiment [5], 97%; on Angiopoietin-1 receptor, 16%. For the same molecule, the residual activity in [6] amounted to 46%; in experiment [7], 58%; in [8] it was 82%; in [9] it was 97%; in experiment [10], 93%; in experiment [11] it was 86%. For the same molecule, the residual activity was found to be 86% in experiment [12], 39% in experiment [13], 62% in [14] and 98% in experiment [15].
